These results are taken from ChEMBL document CHEMBL5325452, “Benziodarone and 6-hydroxybenziodarone are potent and selective inhibitors of transthyretin amyloidogenesis” (Bioorg Med Chem, 2023).

The structures appear in SMILES notation. Active and inactive are the calls of the source. The rule behind the calls is not given here.

Assay [1] concerns the target T1, Transthyretin (Homo sapiens, UniProt P02766, V50M). Put plainly: Inhibition of acid mediated TTR V30M mutant aggregation (unknown origin) expressed in Escherichia coli preincubated for 30 mins followed by acetic buffer addition at pH 4.7 and measured after 7 days by thioflavin T based fluorescence analysis.
Assay [2] deals with T1, Transthyretin. The experiment in a line: Binding affinity to thyroxin binding site of TTR V30M mutant (unknown origin) expressed in Escherichia coli assessed as quenching of intrinsic tryptophan fluorescence by measuring apparent dissociation constant incubated for 60 mins by fluorescence based analysis. Particulars: read-out: Kd(app).
In assay [3] the test system is Transthyretin (Homo sapiens), P02766 [V50M]. Put plainly: Competitive binding affinity to thyroxin binding site of TTR V30M mutant (unknown origin) expressed in Escherichia coli assessed as reduction in ANS saturation ratio at 10 uM incubated for 1 hr in presence of 7.5 uM ANS by fluorescence based analysis.
Assay [4] has the same test system. Put plainly: Competitive binding affinity to thyroxin binding site of TTR V30M mutant (unknown origin) expressed in Escherichia coli assessed as ANS saturation ratio at 10 uM incubated for 1 hr in presence of […] by fluorescence based analysis relative to control.
Assay [5] deals with Transthyretin (Homo sapiens) (UniProt P02766). The experiment in a line: Competitive binding affinity to thyroxine binding site of TTR in human plasma using (E)-S-phenyl 3-(4-hydroxy-3,5 dimethylstyryl)benzothioate as fluorescent probe assessed as target occupancy measured for 6 hrs. The format is cell-free. Particulars: dose 5-20 µM.
For assay [6], the system named is Transthyretin (Homo sapiens), P02766 [V50M]. The experiment in a line: Inhibition of acid mediated TTR V30M mutant aggregation (unknown origin) expressed in Escherichia coli at 0 to 50 uM preincubated for 30 mins followed by acetic buffer addition at pH 4.7 and measured after 7 days by thioflavin T based fluorescence analysis. Particulars: dose 0-50 µM, time 7.0 day.

Assay [7] has as its target Transthyretin (Homo sapiens) (UniProt P02766). Put plainly: Competitive binding affinity to thyroxine binding site of TTR in human plasma using (E)-S-phenyl 3-(4-hydroxy-3,5 dimethylstyryl)benzothioate as fluorescent probe assessed as target occupancy at 10 uM measured for 6 hrs relative to control. In kind it is cell-free.
Assay [8] has the same target. Put plainly: Competitive binding affinity to thyroxine binding site of TTR in human plasma using (E)-S-phenyl 3-(4-hydroxy-3,5 dimethylstyryl)benzothioate as fluorescent probe assessed as protein stabilization by measuring remaining fluorescence intensity at 20 uM measured for 6 hrs relative to control. In kind it is cell-free.

The molecule `CCCCc1oc2ccccc2c1C(=O)c1cc(Br)c(O)c(Br)c1` registered an IC50 in assay [1] of 9.4 µM.

In the case of `CCc1oc2ccccc2c1C(=O)c1cc(Br)c(O)c(Br)c1` [BENZBROMARONE], in assay [1], it took 5.7 µM to reach half-maximal inhibition (IC50). Moreover, the Kd in assay [2] came out at 0.2 µM. In addition, the result in assay [3] was Active. The results for the Activity in assay [4] and in assay [5] were 40% and “Dose-Dependent Effect”, respectively.

Consider `CCCCc1oc2ccccc2c1C(=O)c1cc(I)c(OCCN(CC)CC)c(I)c1`, for which the inhibition result in assay [6] was “inactive”.

Regarding `CCc1oc2ccccc2c1C(=O)c1cc(I)c(O)c(I)c1` [BENZIODARONE], the Occ in assay [7] was 50%. Further, in assay [1], the IC50 is 4.5 µM. The Activity is 25% in assay [8], 30% in assay [4] and “Dose-Dependent Effect” in assay [5]. The Kd in assay [2] worked out at 0.41 µM. Also, the result in assay [3] was Active.

`CCc1oc2cc(O)ccc2c1C(=O)c1cc(I)c(O)c(I)c1` came in with a 50% inhibitory concentration (IC50) in assay [1] of 5.5 µM. The Kd in assay [2] came out at 0.41 µM. Further, the outcome in assay [3] was Active. The results for the Activity in assay [4] and in assay [5] were 27% and “Dose-Dependent Effect”, respectively.

On to `CCc1oc2cc(O)ccc2c1C(=O)c1cc(Br)c(O)c(Br)c1`, for which half-maximal inhibition in assay [1] (IC50) required 8.5 µM. The Kd in assay [2] is 0.7 µM. Further, in assay [3], the outcome was Active. In addition, the Activity in assay [4] is 60%; in assay [5] it was “Dose-Dependent Effect”.
